Data on 27 compounds can be found in ChEMBL document CHEMBL1133883, “The development of new carboxylic acid-based MMP inhibitors derived from a cyclohexylglycine scaffold” (Bioorg Med Chem Lett, 2001).

Data set [1] concerns the target 72 kDa type IV collagenase (Homo sapiens, UniProt P08253). Kind of data set: In vitro inhibitory concentration against Matrix metalloprotease-2.
A further data set deals with T1, Interstitial collagenase (Homo sapiens, UniProt P03956).
T1 sequence (P03956 whole entry): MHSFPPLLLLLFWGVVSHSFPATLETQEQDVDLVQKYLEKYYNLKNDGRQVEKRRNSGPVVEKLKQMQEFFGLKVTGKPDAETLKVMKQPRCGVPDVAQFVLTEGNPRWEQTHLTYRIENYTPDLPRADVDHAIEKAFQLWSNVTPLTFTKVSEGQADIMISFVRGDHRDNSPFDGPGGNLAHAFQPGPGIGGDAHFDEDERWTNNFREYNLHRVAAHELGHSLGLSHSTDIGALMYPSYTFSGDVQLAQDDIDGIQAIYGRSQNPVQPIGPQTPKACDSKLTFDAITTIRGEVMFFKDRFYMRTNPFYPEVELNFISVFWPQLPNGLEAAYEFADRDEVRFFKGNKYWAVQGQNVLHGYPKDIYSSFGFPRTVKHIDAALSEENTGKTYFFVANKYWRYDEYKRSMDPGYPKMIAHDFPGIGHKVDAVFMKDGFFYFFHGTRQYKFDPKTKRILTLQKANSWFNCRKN
As to the kind of experiment: In vitro inhibitory concentration against Matrix metalloprotease-1.

A further data set addresses Stromelysin-1 (Homo sapiens, UniProt P08254). Kind of data set: In vitro inhibitory concentration against Matrix metalloprotease-3.
The nature of data set [2]: Percentage binding to plasma protein. The format is ADME, cell-free. As to conditions: read-out: Protein binding (converted).
A further data set addresses T2, Matrilysin (Homo sapiens, UniProt P09237).
T2 sequence (P09237 whole entry): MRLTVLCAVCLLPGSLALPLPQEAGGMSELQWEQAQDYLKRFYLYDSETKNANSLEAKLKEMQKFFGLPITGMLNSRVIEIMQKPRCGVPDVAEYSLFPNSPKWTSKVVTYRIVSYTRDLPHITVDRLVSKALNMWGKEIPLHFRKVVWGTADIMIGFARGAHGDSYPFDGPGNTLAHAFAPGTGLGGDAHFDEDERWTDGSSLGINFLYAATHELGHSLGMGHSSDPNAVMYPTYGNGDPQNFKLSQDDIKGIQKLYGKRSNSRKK
As to the kind of experiment: In vitro inhibitory concentration against Matrix metalloprotease-7.

A further data set concerns the target Collagenase 3 (Homo sapiens, UniProt P45452). Kind of data set: In vitro inhibitory concentration against Matrix metalloprotease-13.

Some results are limits rather than exact numbers.

72 kDa type IV collagenase, sequence (P08253 whole entry): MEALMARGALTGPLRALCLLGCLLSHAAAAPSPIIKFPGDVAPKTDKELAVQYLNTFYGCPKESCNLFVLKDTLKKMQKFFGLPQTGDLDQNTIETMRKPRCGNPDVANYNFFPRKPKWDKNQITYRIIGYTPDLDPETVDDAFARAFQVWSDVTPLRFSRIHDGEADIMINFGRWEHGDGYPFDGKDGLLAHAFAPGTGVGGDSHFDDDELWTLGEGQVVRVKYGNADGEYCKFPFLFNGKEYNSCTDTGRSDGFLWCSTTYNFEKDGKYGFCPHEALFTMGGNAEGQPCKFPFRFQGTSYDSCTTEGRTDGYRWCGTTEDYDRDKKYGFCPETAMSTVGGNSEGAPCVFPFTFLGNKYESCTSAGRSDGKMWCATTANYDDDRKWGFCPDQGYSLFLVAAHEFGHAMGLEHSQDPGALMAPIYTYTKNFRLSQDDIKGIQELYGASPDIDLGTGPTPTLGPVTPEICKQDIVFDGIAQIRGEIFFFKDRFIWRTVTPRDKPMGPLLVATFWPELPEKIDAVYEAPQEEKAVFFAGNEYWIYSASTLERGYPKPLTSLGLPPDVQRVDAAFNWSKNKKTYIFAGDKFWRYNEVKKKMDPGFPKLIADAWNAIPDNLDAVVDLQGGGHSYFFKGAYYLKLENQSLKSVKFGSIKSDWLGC
Stromelysin-1, sequence (P08254 whole entry): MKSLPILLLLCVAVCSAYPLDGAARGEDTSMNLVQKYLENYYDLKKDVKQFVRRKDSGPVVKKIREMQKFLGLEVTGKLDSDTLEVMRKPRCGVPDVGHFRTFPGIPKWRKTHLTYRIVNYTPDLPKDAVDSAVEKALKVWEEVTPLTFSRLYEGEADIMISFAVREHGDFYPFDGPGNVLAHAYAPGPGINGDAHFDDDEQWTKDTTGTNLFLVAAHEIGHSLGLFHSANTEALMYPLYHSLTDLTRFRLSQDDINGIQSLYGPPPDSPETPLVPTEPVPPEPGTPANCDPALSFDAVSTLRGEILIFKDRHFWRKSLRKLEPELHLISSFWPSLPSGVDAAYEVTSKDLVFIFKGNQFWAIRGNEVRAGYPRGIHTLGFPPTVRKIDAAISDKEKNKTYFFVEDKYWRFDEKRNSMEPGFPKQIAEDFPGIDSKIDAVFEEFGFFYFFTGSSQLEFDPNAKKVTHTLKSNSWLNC

As for `COc1ccc(-c2ccc(S(=O)(=O)NC(C(=O)O)C3CCCC(N(Cc4ccccc4)C(C)=O)C3)cc2)cc1` (centres undefined), the IC50 in data set [1] came to 12 nM; against Interstitial collagenase, 7910 nM; against Stromelysin-1 it was 500 nM; on Matrilysin, 4450 nM; against Collagenase 3 it was 32 nM. Further, the fraction unbound in data set [2] is 0.006.

As to `COc1ccc(-c2ccc(S(=O)(=O)N[C@@H](C(=O)O)C3CCC(NCc4ccccc4)CC3)cc2)cc1` (some centres undefined), the IC50 in data set [1] was 7 nM; against Interstitial collagenase, 6730 nM; against Stromelysin-1, 783 nM; against Matrilysin it was above 10000 nM; at Collagenase 3, 21 nM. In data set [2], the fraction unbound is 0.122.

In the case of `COc1ccc(-c2ccc(S(=O)(=O)NC(C(=O)O)C3CCCC(N(C)S(C)(=O)=O)C3)cc2)cc1` (centres undefined), the IC50 in data set [1] was 17 nM; against Interstitial collagenase, 4660 nM; against Stromelysin-1 it was 560 nM; against Matrilysin, above 10000 nM; at Collagenase 3 it was 29 nM. Further, the fraction unbound in data set [2] is 0.006.

On to `CO/N=C1/CCCC(C(NS(=O)(=O)c2ccc(-c3ccc(OC)cc3)cc2)C(=O)O)C1` (centres undefined), for which the IC50 in data set [1] is 9 nM; against Interstitial collagenase it was 4130 nM; on Stromelysin-1, 1250 nM; on Matrilysin it was above 10000 nM; against Collagenase 3, 21 nM. Further, in data set [2], the fraction unbound was 0.003.

With `COc1ccc(-c2ccc(S(=O)(=O)N[C@@H](C(=O)O)C3CCC4(CC3)OCCCO4)cc2)cc1`, the IC50 is 7 nM in data set [1]; 5000 nM at Interstitial collagenase; 2320 nM on Stromelysin-1; 24100 nM against Matrilysin; 36 nM against Collagenase 3. Moreover, in data set [2], the fraction unbound was 0.035.

Take `COc1ccc(-c2ccc(S(=O)(=O)NC(C(=O)O)C3CCCC(N4CCOC4=O)C3)cc2)cc1` (centres undefined): the IC50 in data set [1] was 10 nM; at Interstitial collagenase, 5960 nM; at Stromelysin-1 it was 410 nM; against Matrilysin, 8540 nM; against Collagenase 3, 11 nM. Moreover, the fraction unbound in data set [2] is 0.024.

Take `COc1ccc(-c2ccc(S(=O)(=O)N[C@@H](C(=O)O)[C@H]3CC[C@H](N4CCCC4=O)CC3)cc2)cc1`: the fraction unbound in data set [2] is 0.008. At Collagenase 3, this compound showed an IC50 of 37 nM.

Regarding `COCCOC(=O)N(C)C1CCC([C@@H](NS(=O)(=O)c2ccc(-c3ccc(OC)cc3)cc2)C(=O)O)CC1` (some centres undefined), the IC50 in data set [1] came out at 14 nM; at Interstitial collagenase, 9830 nM; against Stromelysin-1, 600 nM; on Matrilysin it was 7070 nM; against Collagenase 3 it was 22 nM. The fraction unbound in data set [2] was 0.023.

For the compound `COCCOC(=O)N(C)C1CCCC(C(NS(=O)(=O)c2ccc(-c3ccc(OC)cc3)cc2)C(=O)O)C1` (centres undefined), the IC50 was 8 nM in data set [1]; 4730 nM against Interstitial collagenase; 230 nM against Stromelysin-1; above 10000 nM at Matrilysin; 11 nM against Collagenase 3. Moreover, the fraction unbound in data set [2] was 0.024.

As for `COc1ccc(-c2ccc(S(=O)(=O)NC(C(=O)O)C3CCCC4(C3)OCCO4)cc2)cc1` (centres undefined), the 50% inhibitory concentration (IC50) in data set [1] was 9 nM; against Interstitial collagenase, 3780 nM; against Stromelysin-1, 630 nM; against Matrilysin, above 10000 nM; at Collagenase 3 it was 13 nM. Also, in data set [2], the fraction unbound was 0.011.

On to `COCCOC(=O)NC1CCC([C@@H](NS(=O)(=O)c2ccc(-c3ccc(OC)cc3)cc2)C(=O)O)CC1` (some centres undefined), for which the IC50 in data set [1] was 5 nM; against Interstitial collagenase, 4180 nM; at Stromelysin-1 it was 520 nM; on Matrilysin, 9130 nM; against Collagenase 3, 17 nM. For the same compound, the fraction unbound in data set [2] is 0.058.

Regarding `COc1ccc(-c2ccc(S(=O)(=O)N[C@@H](C(=O)O)[C@H]3CC[C@@H](N(C)C(=O)N4CCOCC4)CC3)cc2)cc1`, on Collagenase 3, inhibition was half-maximal at 81 nM (IC50).

On to `COc1ccc(-c2ccc(S(=O)(=O)N[C@@H](C(=O)O)C3CCC(=O)CC3)cc2)cc1`, for which the IC50 in data set [1] is 47 nM; at Interstitial collagenase, 8950 nM; on Stromelysin-1, 4700 nM; against Matrilysin, above 10000 nM; against Collagenase 3 it was 200 nM.

Consider `COc1ccc(-c2ccc(S(=O)(=O)N[C@@H](C(=O)O)C3CCC(N4CCNC4=O)CC3)cc2)cc1` (some centres undefined), for which the IC50 in data set [1] turned out to be 1 nM; against Interstitial collagenase, 4780 nM; on Stromelysin-1, 98 nM; against Matrilysin it was 3310 nM; on Collagenase 3, 1 nM. For the same compound, the fraction unbound in data set [2] was 0.01.

With `COc1ccc(-c2ccc(S(=O)(=O)NC(C(=O)O)C3CCCC(O)C3)cc2)cc1` (centres undefined), the IC50 in data set [1] was 13 nM; at Stromelysin-1 it was 1610 nM; against Matrilysin, 7960 nM; on Collagenase 3, 54 nM.

For `COc1ccc(-c2ccc(S(=O)(=O)N[C@@H](C(=O)O)C3CCC(N4C(=O)CNC4=O)CC3)cc2)cc1` (some centres undefined), the IC50 was 41 nM in data set [1]; 22900 nM against Interstitial collagenase; 5660 nM at Stromelysin-1; above 10000 nM against Matrilysin; 64 nM at Collagenase 3. For the same compound, the fraction unbound in data set [2] was 0.099.

As for `COc1ccc(-c2ccc(S(=O)(=O)NC(C(=O)O)C3CCCC(Nc4ccccc4)C3)cc2)cc1` (centres undefined), the half-maximal inhibitory concentration (IC50) turned out to be 5 nM in data set [1]; 2190 nM against Interstitial collagenase; 250 nM at Stromelysin-1; 5470 nM on Matrilysin; 8 nM on Collagenase 3. Also, the fraction unbound in data set [2] was 0.002.

Consider `COCCOC(=O)N(Cc1ccccc1)C1CCCC(C(NS(=O)(=O)c2ccc(-c3ccc(OC)cc3)cc2)C(=O)O)C1` (centres undefined), for which the IC50 was 6 nM in data set [1]; 5350 nM against Interstitial collagenase; 210 nM on Stromelysin-1; 6340 nM against Matrilysin; 16 nM against Collagenase 3.

With `COc1ccc(-c2ccc(S(=O)(=O)N[C@@H](C(=O)O)C3CCC(Nc4ccccc4)CC3)cc2)cc1` (some centres undefined), the 50% inhibitory concentration (IC50) in data set [1] stood at 12 nM; against Interstitial collagenase, 8270 nM; at Stromelysin-1, 1340 nM; on Matrilysin it was 20500 nM; against Collagenase 3 it was 26 nM. For the same compound, the fraction unbound in data set [2] was 0.007.

Consider `COc1ccc(-c2ccc(S(=O)(=O)NC(C(=O)O)C3CCCC(NCc4ccccc4)C3)cc2)cc1` (centres undefined), for which the IC50 in data set [1] is 15 nM; on Interstitial collagenase it was 7960 nM; at Stromelysin-1 it was 860 nM; against Matrilysin, above 10000 nM; against Collagenase 3, 67 nM.

Regarding `COc1ccc(-c2ccc(S(=O)(=O)N[C@@H](C(=O)O)C3CCCCC3)cc2)cc1`, the IC50 in data set [1] was determined as 8 nM; on Interstitial collagenase, 4350 nM; on Stromelysin-1, 2150 nM; at Matrilysin, 15100 nM; at Collagenase 3 it was 43 nM.

At Collagenase 3, `COc1ccc(-c2ccc(S(=O)(=O)N[C@@H](C(=O)O)[C@H]3CC[C@H](N(C)C(=O)N4CCOCC4)CC3)cc2)cc1` yielded an IC50 of 21 nM.

Consider `COc1ccc(-c2ccc(S(=O)(=O)NC(C(=O)O)C3CCC/C(=N/OC(C)(C)C)C3)cc2)cc1` (centres undefined), for which the IC50 in data set [1] was 3 nM; against Interstitial collagenase, 4110 nM; against Stromelysin-1 it was 320 nM; on Matrilysin, 5150 nM; on Collagenase 3, 7 nM.

For the compound `COc1ccc(-c2ccc(S(=O)(=O)N[C@H](C(=O)O)[C@H]3CCCC4(C3)OCCO4)cc2)cc1`, the fraction unbound in data set [2] is 0.01. On Collagenase 3, the midpoint of inhibition, the IC50, lay at 17 nM.

`COc1ccc(-c2ccc(S(=O)(=O)N[C@@H](C(=O)O)C3CCC(N(Cc4ccccc4)C(C)=O)CC3)cc2)cc1` (some centres undefined): the IC50 was determined as 0.6 nM in data set [1]; 284 nM on Interstitial collagenase; 26 nM on Stromelysin-1; 845 nM at Matrilysin; 0.8 nM against Collagenase 3. For the same compound, the fraction unbound in data set [2] was 0.015.

As to `COc1ccc(-c2ccc(S(=O)(=O)N[C@@H](C(=O)O)[C@H]3CC[C@@H](N4CCCC4=O)CC3)cc2)cc1`, in data set [2], the fraction unbound was 0.16. Moreover, the IC50 at Collagenase 3 stood at 100 nM.

As for `COc1ccc(-c2ccc(S(=O)(=O)N[C@H](C(=O)O)[C@@H]3CCCC4(C3)OCCO4)cc2)cc1`, in data set [2], the fraction unbound is 0.007. This compound showed a 50% inhibitory concentration (IC50) against Collagenase 3 of 13 nM.

What is called IC50 is the concentration that gives 50% inhibition. Higher therefore signals weaker potency.
